Results published in the supplement of paper PMC10307832.

Compound: CC1=NC=CC(=C1)C2=CC=C(C=C2)CC(=O)NC3=CC=C(C=C3)C4=CN=CC=C4 [Wnt-C59]
Assay: relative viability (nuclei count vs DMSO), 5 days (fraction); higher = more cells survive
In short: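 Only plates meeting two conditions passed: control CV below 25% and at least one doubling. Lung cancer cell lines, kept overnight at 37 °C in 1536-well plates, were pinned with five library-drug doses (not always all listed) √10 apart on vehicle-anchored plates and grown 5 days without medium change. A one-step fix, permeabilisation and Hoechst stain preceded 4× imaging and MetaXpress nuclear counting. Viability equals treated-well nuclei divided by vehicle-well nuclei, as the median over plates.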

201T
relative viability (0.001 µM): 0.972 | relative viability (0.01 µM): 0.958 | relative viability (0.03162 µM): 0.982 | relative viability (0.1 µM): 0.976

A549
relative viability (0.001 µM): 0.966 | relative viability (0.01 µM): 0.978 | relative viability (0.03162 µM): 1.01 | relative viability (0.1 µM): 0.893

A-427
relative viability (0.001 µM): 0.965 | relative viability (0.01 µM): 0.817 | relative viability (0.03162 µM): 1.05 | relative viability (0.1 µM): 1.04

ABC-1
relative viability (0.001 µM): 0.938 | relative viability (0.01 µM): 1.01 | relative viability (0.03162 µM): 1.01 | relative viability (0.1 µM): 0.952

BEN
relative viability (0.001 µM): 0.936 | relative viability (0.01 µM): 1 | relative viability (0.03162 µM): 1.02 | relative viability (0.1 µM): 1.07

CAL-12T
relative viability (0.001 µM): 0.975 | relative viability (0.01 µM): 1.04 | relative viability (0.03162 µM): 0.965 | relative viability (0.1 µM): 1.04

COR-L23
relative viability (0.001 µM): 0.961 | relative viability (0.01 µM): 1.01 | relative viability (0.03162 µM): 1.07 | relative viability (0.1 µM): 0.963

COR-L 105
relative viability (0.001 µM): 0.992 | relative viability (0.01 µM): 0.948 | relative viability (0.03162 µM): 0.94 | relative viability (0.1 µM): 0.921

Calu-6
relative viability (0.001 µM): 1.02 | relative viability (0.01 µM): 1.01 | relative viability (0.03162 µM): 1.05 | relative viability (0.1 µM): 0.987

ChaGo-K-1
relative viability (0.001 µM): 0.951 | relative viability (0.01 µM): 1.01 | relative viability (0.03162 µM): 1.03 | relative viability (0.1 µM): 0.958

EBC-1
relative viability (0.001 µM): 1.08 | relative viability (0.01 µM): 0.995 | relative viability (0.03162 µM): 1.02 | relative viability (0.1 µM): 0.904

EKVX
relative viability (0.001 µM): 1.03 | relative viability (0.01 µM): 0.759 | relative viability (0.03162 µM): 1.01 | relative viability (0.1 µM): 0.832

EMC-BAC-2
relative viability (0.001 µM): 0.891 | relative viability (0.01 µM): 0.874 | relative viability (0.03162 µM): 0.868 | relative viability (0.1 µM): 0.962

EPLC-272H
relative viability (0.001 µM): 1.01 | relative viability (0.01 µM): 0.886 | relative viability (0.03162 µM): 1.15 | relative viability (0.1 µM): 0.987

H3255
relative viability (0.001 µM): 1.03 | relative viability (0.01 µM): 0.887 | relative viability (0.03162 µM): 1.06 | relative viability (0.1 µM): 0.966

HARA
relative viability (0.001 µM): 0.952 | relative viability (0.01 µM): 0.874 | relative viability (0.03162 µM): 1.19 | relative viability (0.1 µM): 1.02

HCC-15
relative viability (0.001 µM): 1.05 | relative viability (0.01 µM): 1.01 | relative viability (0.03162 µM): 1.07 | relative viability (0.1 µM): 0.981

HCC-44
relative viability (0.001 µM): 1.04 | relative viability (0.01 µM): 0.972 | relative viability (0.03162 µM): 0.979 | relative viability (0.1 µM): 1.04

HCC-78
relative viability (0.001 µM): 0.814 | relative viability (0.01 µM): 1.02 | relative viability (0.03162 µM): 0.99 | relative viability (0.1 µM): 1.12

HCC-366
relative viability (0.001 µM): 0.993 | relative viability (0.01 µM): 0.997 | relative viability (0.03162 µM): 1.06 | relative viability (0.1 µM): 0.976

HCC-827
relative viability (0.001 µM): 1.1 | relative viability (0.01 µM): 1.05 | relative viability (0.03162 µM): 1.02 | relative viability (0.1 µM): 1.06

HOP-62
relative viability (0.001 µM): 0.998 | relative viability (0.01 µM): 1 | relative viability (0.03162 µM): 1.06 | relative viability (0.1 µM): 0.953

IA-LM
relative viability (0.001 µM): 1.05 | relative viability (0.01 µM): 0.909 | relative viability (0.03162 µM): 0.94 | relative viability (0.1 µM): 0.884

LC-2-ad
relative viability (0.001 µM): 1.05 | relative viability (0.01 µM): 0.966 | relative viability (0.03162 µM): 0.933 | relative viability (0.1 µM): 0.955

LCLC-97TM1
relative viability (0.001 µM): 1.04 | relative viability (0.01 µM): 0.908 | relative viability (0.03162 µM): 1.07 | relative viability (0.1 µM): 1.06

LCLC-103H
relative viability (0.001 µM): 0.959 | relative viability (0.01 µM): 0.986 | relative viability (0.03162 µM): 0.987 | relative viability (0.1 µM): 1.03

LK-2
relative viability (0.001 µM): 0.958 | relative viability (0.01 µM): 0.982 | relative viability (0.03162 µM): 0.993 | relative viability (0.1 µM): 1.12

LOU-NH91
relative viability (0.001 µM): 0.978 | relative viability (0.01 µM): 0.892 | relative viability (0.03162 µM): 0.955 | relative viability (0.1 µM): 1.04

LU99A
relative viability (0.001 µM): 0.946 | relative viability (0.01 µM): 0.923 | relative viability (0.03162 µM): 1.09 | relative viability (0.1 µM): 0.936

LXF-289
relative viability (0.001 µM): 0.983 | relative viability (0.01 µM): 0.993 | relative viability (0.03162 µM): 0.999 | relative viability (0.1 µM): 0.976

NCI-H23
relative viability (0.001 µM): 0.827 | relative viability (0.01 µM): 0.972 | relative viability (0.03162 µM): 1.01 | relative viability (0.1 µM): 1

NCI-H322M
relative viability (0.001 µM): 0.999 | relative viability (0.01 µM): 0.859 | relative viability (0.03162 µM): 0.84 | relative viability (0.1 µM): 0.867

NCI-H358
relative viability (0.001 µM): 1.01 | relative viability (0.01 µM): 0.785 | relative viability (0.03162 µM): 0.957 | relative viability (0.1 µM): 0.975

NCI-H441
relative viability (0.001 µM): 1.11 | relative viability (0.01 µM): 1.22 | relative viability (0.03162 µM): 1.1 | relative viability (0.1 µM): 0.993

NCI-H460
relative viability (0.001 µM): 0.973 | relative viability (0.01 µM): 0.95 | relative viability (0.03162 µM): 1.02 | relative viability (0.1 µM): 0.957

NCI-H520
relative viability (0.001 µM): 1.1 | relative viability (0.01 µM): 0.95 | relative viability (0.03162 µM): 0.901 | relative viability (0.1 µM): 1.07

NCI-H522
relative viability (0.001 µM): 1.04 | relative viability (0.01 µM): 0.927 | relative viability (0.03162 µM): 0.994 | relative viability (0.1 µM): 0.957

NCI-H596
relative viability (0.001 µM): 0.93 | relative viability (0.01 µM): 0.936 | relative viability (0.03162 µM): 1.12 | relative viability (0.1 µM): 1.06

NCI-H647
relative viability (0.001 µM): 0.914 | relative viability (0.01 µM): 1 | relative viability (0.03162 µM): 0.934 | relative viability (0.1 µM): 0.946

NCI-H650
relative viability (0.001 µM): 0.886 | relative viability (0.01 µM): 0.952 | relative viability (0.03162 µM): 1.03 | relative viability (0.1 µM): 0.974
